We go through one molecule from patent publication EP2849731B1, “FORMULATION FOR LOW BIOAVAILABILITY SUBSTANCES CONTAINING A N-ACETYLCYSTEINE-CHITOSAN SALT” (Labomar S.r.l., priority 2012, dated 2013).

The nature of series [1]: Curcumin detection by HPLC-UV in the 0.25% w/w solution of Composition A in buffer. It counts as physicochemical. Particulars: due to incomplete solubility in the buffers.
Series [2] can be described thus: Intestinal passage test: curcumin passage through the Caco-2 monolayer, HPLC-UV. Particulars: human.
Method: The passage through a monolayer of Caco-2 cells of Composition A at non-cytotoxic concentration is monitored at defined times (0 min- 15 min -30 min and 60 min).
The Caco-2 cells grown as a monolayer on a permeable artificial support reproduce the intestinal epithelial layer (monolayer of cells that are polarized and coupled by tight junctions). The flow through the monolayer allows to establish the permeability of a substance.
After 21 days of growth on insert, the differentiated cells show an apical side, corresponding to the intestinal lumen in vivo, and one that corresponds to the basolateral compartment of the blood and lymphatic circulation of the organism.
The culture medium is aspirated from all cell monolayers before the experiments of permeability. All cell monolayers are washed once with HBSS solution (Hank's Balanced Salt Solution) and left to equilibrate at 37°C for 20 min. […] In parallel, the same amount of substance is divided into equal aliquots and represents the apical sample at time = 0 minutes (0'AP). At the receiving side of the monolayer 1.2 mL of 1X HBSS-Hepes 1% (pH 7.4) are added. […]
Using the mathematical formulas described by Arturrson the relationships are calculated between concentrations of substances in the basolateral (receiver) and in the apical (donor) compartments at each sampling time.

In general, Papp A→B refers to the apparent permeability from the apical to the basolateral side of a cell layer. The low end stands for poor permeation, the high end for ready permeation.

Regarding `COc1cc(/C=C/C(=O)CC(=O)/C=C/c2ccc(O)c(OC)c2)ccc1O` [Curcumin, curcumin], the “loss in title (theoretical curcumin content not detected in the solution)” value in series [1] is on record as 23%. Besides, in series [2], the Papp A→B at 60 min, 1.404 mM amounted to 0.804 ×10⁻⁶ cm/s.
